Starred links: 1 amine or outer side, 2 acyl side, 3 side chain; linkers in the order of their positions; H or OH if unused. Non-standard residues stand in square brackets, D forms with d. Residues, ends and D or L forms follow the SMILES beside them. Groups on a side chain read outwards from the residue. *: point of attachment. C20 diacid = O=C(O)CCCCCCCCCCCCCCCCCCC(=O)*; C18 diacid = O=C(O)CCCCCCCCCCCCCCCCC(=O)*; γGlu = O=C(O)[C@H](CCC(=O)[*:2])N[*:1]; αMeF = C[C@](N)(Cc1ccccc1)C(=O)O; AEEA = NCCOCCOCC(=O)O; Aib = CC(C)(N)C(=O)O
Tests used:
[1] = biological target: human GLP-1 receptor (hGLP-1R) (Homo sapiens, UniProt P43220); experiment: cAMP production (HTRF) in CHO cells expressing hGLP-1R; format: cell-based; set-up: expressed in transfected cells; details: for EC50: Table 7, peptides modified at position 20, cAMP in CHO hGLP-1R cells, geometric mean, read-out: hGLP-1R EC50; for % Relative Potency Ratio: Table 7, % GLP-1R activity relative to GLP-1 / % GlucR activity relative to glucagon
In short: (§1)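 Read-out: HTRF cAMP (anti-cAMP cryptate donor, cAMP-d2 acceptor in conjugate/lysis buffer), converted to % Delta F and fitted by 4-parameter logistic for EC50. Cell densities were 1×10^5 cells/mL (hGLP-1R) or 2×10^5 cells/mL (hGCGR). Stimulation lasted 30 min at room temperature.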

[2] = biological target: human glucagon receptor (hGCGR) (Homo sapiens, UniProt P47871); experiment: cAMP production (HTRF) in CHO cells expressing hGCGR; format: cell-based; set-up: expressed in transfected cells; details: Table 7, peptides modified at position 20; cAMP in CHO hGCGR cells; geometric mean; read-out: hGluc-R EC50
In short: as §1

Chain of human GLP-1 receptor (hGLP-1R) (P43220 24-463): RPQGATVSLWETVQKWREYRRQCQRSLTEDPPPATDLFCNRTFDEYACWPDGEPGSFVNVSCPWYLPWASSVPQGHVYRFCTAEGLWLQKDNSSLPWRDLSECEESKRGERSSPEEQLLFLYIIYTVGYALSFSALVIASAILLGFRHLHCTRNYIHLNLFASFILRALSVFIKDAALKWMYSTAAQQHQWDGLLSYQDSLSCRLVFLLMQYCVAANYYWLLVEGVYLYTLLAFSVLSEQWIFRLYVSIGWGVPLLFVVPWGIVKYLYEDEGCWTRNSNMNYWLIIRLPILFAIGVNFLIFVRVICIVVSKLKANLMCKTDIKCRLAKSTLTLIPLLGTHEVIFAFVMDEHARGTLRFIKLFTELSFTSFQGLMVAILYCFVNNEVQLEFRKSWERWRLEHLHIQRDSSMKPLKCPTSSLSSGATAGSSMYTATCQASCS
Chain of human glucagon receptor (hGCGR) (P47871 26-477): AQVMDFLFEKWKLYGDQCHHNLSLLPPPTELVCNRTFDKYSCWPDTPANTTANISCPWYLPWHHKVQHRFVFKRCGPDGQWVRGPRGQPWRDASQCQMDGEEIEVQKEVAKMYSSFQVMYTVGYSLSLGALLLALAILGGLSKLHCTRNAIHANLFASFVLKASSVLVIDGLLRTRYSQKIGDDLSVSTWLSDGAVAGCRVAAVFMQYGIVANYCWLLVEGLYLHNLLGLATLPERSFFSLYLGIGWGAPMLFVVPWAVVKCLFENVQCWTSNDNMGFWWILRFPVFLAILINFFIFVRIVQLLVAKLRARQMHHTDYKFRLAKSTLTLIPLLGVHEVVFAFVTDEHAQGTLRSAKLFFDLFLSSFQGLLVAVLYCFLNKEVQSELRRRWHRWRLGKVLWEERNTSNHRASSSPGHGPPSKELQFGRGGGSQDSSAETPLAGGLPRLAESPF

Row | EC50 [1] | % Relative Potency Ratio [1] | EC50 [2] | SMILES
1 | 178 pM | 1.1 | 96.2 pM | CC[C@H](C)[C@H](NC(=O)C(C)(C)NC(=O)[C@H](CCC(N)=O)NC(=O)[C@@H](NC(=O)[C@H](Cc1ccccc1)NC(=O)[C@H](CC(=O)O)NC(=O)[C@H](CCCCNC(=O)COCCOCCNC(=O)COCCOCCNC(=O)CC[C@H](NC(=O)CCCCCCCCCCCCCCCCC(=O)O)C(=O)O)NC(=O)[C@H](C)NC(=O)[C@H](C)NC(=O)[C@H](CCC(N)=O)NC(=O)[C@H](CO)NC(=O)[C@H](CC(=O)O)NC(=O)[C@H](CC(C)C)NC(=O)[C@](C)(Cc1ccccc1)NC(=O)[C@H](CCCCN)NC(=O)[C@H](CO)NC(=O)[C@@H](NC(=O)[C@H](CC(=O)O)NC(=O)[C@H](CO)NC(=O)[C@@H](NC(=O)[C@](C)(Cc1ccccc1)NC(=O)[C@H](CO)NC(=O)CNC(=O)[C@H](Cc1c[nH]cn1)NC(=O)C(C)(C)NC(=O)[C@@H](N)Cc1c[nH]cn1)[C@@H](C)O)C(C)C)C(C)C)C(=O)N[C@@H](C)C(=O)N[C@@H](CC(N)=O)C(=O)N[C@H](C(N)=O)[C@@H](C)O [Peptide 207] (H-H[Aib]HGS[αMeF]TSDVSK[αMeF]LDSQAAK([AEEA-AEEA-γGlu-C18 diacid])DFVQ[Aib]IANT-NH2)
2 | 64.4 pM | 20.2 | 658 pM | CC[C@H](C)[C@H](NC(=O)[C@H](Cc1c[nH]c2ccccc12)NC(=O)[C@H](CCC(N)=O)NC(=O)[C@@H](NC(=O)[C@H](Cc1ccccc1)NC(=O)[C@H](CC(=O)O)NC(=O)[C@H](CCCCNC(=O)CC[C@H](NC(=O)CCCCCCCCCCCCCCCCC(=O)O)C(=O)O)NC(=O)[C@H](C)NC(=O)[C@H](C)NC(=O)[C@H](CCCNC(=N)N)NC(=O)[C@H](CO)NC(=O)[C@H](CC(=O)O)NC(=O)[C@H](CC(C)C)NC(=O)[C@](C)(Cc1ccccc1)NC(=O)[C@H](CCCCN)NC(=O)[C@H](CO)NC(=O)[C@@H](NC(=O)[C@H](CC(=O)O)NC(=O)[C@H](CO)NC(=O)[C@@H](NC(=O)[C@H](Cc1ccccc1)NC(=O)[C@@H](NC(=O)CNC(=O)[C@H](CCC(N)=O)NC(=O)C(C)(C)NC(=O)[C@@H](N)Cc1c[nH]cn1)[C@@H](C)O)[C@@H](C)O)C(C)C)C(C)C)C(=O)N[C@@H](C)C(=O)N[C@@H](CC(N)=O)C(=O)N[C@H](C(N)=O)[C@@H](C)O [Peptide 208]
3 | 127 pM | 0.7 | 42.6 pM | CC[C@H](C)[C@H](NC(=O)[C@H](Cc1c[nH]c2ccccc12)NC(=O)[C@H](CCC(=O)O)NC(=O)[C@@H](NC(=O)[C@H](Cc1ccccc1)NC(=O)[C@H](CC(=O)O)NC(=O)[C@H](CCCCNC(=O)COCCOCCNC(=O)COCCOCCNC(=O)CC[C@H](NC(=O)CCCCCCCCCCCCCCCCC(=O)O)C(=O)O)NC(=O)[C@H](C)NC(=O)[C@H](C)NC(=O)[C@H](CCC(N)=O)NC(=O)[C@H](CO)NC(=O)[C@H](CC(=O)O)NC(=O)[C@H](CC(C)C)NC(=O)[C@](C)(Cc1ccccc1)NC(=O)[C@H](CCCCN)NC(=O)[C@H](CO)NC(=O)[C@@H](NC(=O)[C@H](CC(=O)O)NC(=O)[C@H](CO)NC(=O)[C@@H](NC(=O)[C@](C)(Cc1ccccc1)NC(=O)[C@H](CO)NC(=O)CNC(=O)[C@H](Cc1c[nH]cn1)NC(=O)C(C)(C)NC(=O)[C@@H](N)Cc1c[nH]cn1)[C@@H](C)O)C(C)C)C(C)C)C(=O)N[C@@H](C)C(=O)N[C@@H](CC(N)=O)C(=O)N[C@H](C(N)=O)[C@@H](C)O [Peptide 209] (H-H[Aib]HGS[αMeF]TSDVSK[αMeF]LDSQAAK([AEEA-AEEA-γGlu-C18 diacid])DFVEWIANT-NH2)
4 | 156 pM | 1.2 | 93.7 pM | CC[C@H](C)[C@H](NC(=O)[C@H](Cc1c[nH]c2ccccc12)NC(=O)[C@H](CCC(=O)O)NC(=O)[C@@H](NC(=O)[C@H](Cc1ccccc1)NC(=O)[C@H](CC(=O)O)NC(=O)[C@H](CCCCNC(=O)COCCOCCNC(=O)COCCOCCNC(=O)CC[C@H](NC(=O)CC[C@H](NC(=O)CCCCCCCCCCCCCCCCC(=O)O)C(=O)O)C(=O)O)NC(=O)[C@H](C)NC(=O)[C@H](C)NC(=O)[C@H](CCC(N)=O)NC(=O)[C@H](CO)NC(=O)[C@H](CC(=O)O)NC(=O)[C@H](CC(C)C)NC(=O)[C@](C)(Cc1ccccc1)NC(=O)[C@H](CCCCN)NC(=O)[C@H](CO)NC(=O)[C@@H](NC(=O)[C@H](CC(=O)O)NC(=O)[C@H](CO)NC(=O)[C@@H](NC(=O)[C@](C)(Cc1ccccc1)NC(=O)[C@H](CO)NC(=O)CNC(=O)[C@H](Cc1c[nH]cn1)NC(=O)C(C)(C)NC(=O)[C@@H](N)Cc1c[nH]cn1)[C@@H](C)O)C(C)C)C(C)C)C(=O)N[C@@H](C)C(=O)N[C@@H](CC(N)=O)C(=O)N[C@H](C(N)=O)[C@@H](C)O [Peptide 210] (H-H[Aib]HGS[αMeF]TSDVSK[αMeF]LDSQAAK([AEEA-AEEA-γGlu-γGlu-C18 diacid])DFVEWIANT-NH2)
5 | 167 pM | 0.7 | 60.9 pM | CC[C@H](C)[C@H](NC(=O)[C@H](Cc1c[nH]c2ccccc12)NC(=O)[C@H](CCC(N)=O)NC(=O)[C@@H](NC(=O)[C@H](Cc1ccccc1)NC(=O)[C@H](CC(=O)O)NC(=O)[C@H](CCCCNC(=O)COCCOCCNC(=O)COCCOCCNC(=O)CC[C@H](NC(=O)CC[C@H](NC(=O)CCCCCCCCCCCCCCCCCCC(=O)O)C(=O)O)C(=O)O)NC(=O)[C@H](C)NC(=O)[C@H](C)NC(=O)[C@H](CCCNC(=N)N)NC(=O)[C@H](CO)NC(=O)[C@H](CC(=O)O)NC(=O)[C@H](CC(C)C)NC(=O)[C@](C)(Cc1ccccc1)NC(=O)[C@H](CCCCN)NC(=O)[C@H](CO)NC(=O)[C@@H](NC(=O)[C@H](CC(=O)O)NC(=O)[C@H](CO)NC(=O)[C@@H](NC(=O)[C@](C)(Cc1ccccc1)NC(=O)[C@H](CO)NC(=O)CNC(=O)[C@H](Cc1c[nH]cn1)NC(=O)C(C)(C)NC(=O)[C@@H](N)Cc1c[nH]cn1)[C@@H](C)O)C(C)C)C(C)C)C(=O)N[C@@H](C)C(=O)N[C@@H](CC(N)=O)C(=O)N[C@H](C(N)=O)[C@@H](C)O [Peptide 211] (H-H[Aib]HGS[αMeF]TSDVSK[αMeF]LDSRAAK([AEEA-AEEA-γGlu-γGlu-C20 diacid])DFVQWIANT-NH2)
6 | 532 pM | 0.4 | 97.5 pM | CC[C@H](C)[C@H](NC(=O)[C@H](Cc1c[nH]c2ccccc12)NC(=O)[C@H](CCC(=O)O)NC(=O)[C@@H](NC(=O)[C@H](Cc1ccccc1)NC(=O)[C@H](CC(=O)O)NC(=O)[C@H](CCCCNC(=O)COCCOCCNC(=O)COCCOCCNC(=O)CC[C@H](NC(=O)CCCCCCCCCCCCCCCCCCC(=O)O)C(=O)O)NC(=O)[C@H](C)NC(=O)[C@H](C)NC(=O)[C@H](CCCNC(=N)N)NC(=O)[C@H](CO)NC(=O)[C@H](CC(=O)O)NC(=O)[C@H](CC(C)C)NC(=O)[C@](C)(Cc1ccccc1)NC(=O)[C@H](CCCCN)NC(=O)[C@H](CO)NC(=O)[C@@H](NC(=O)[C@H](CC(=O)O)NC(=O)[C@H](CO)NC(=O)[C@@H](NC(=O)[C@](C)(Cc1ccccc1)NC(=O)[C@H](CO)NC(=O)CNC(=O)[C@H](Cc1c[nH]cn1)NC(=O)C(C)(C)NC(=O)[C@@H](N)Cc1c[nH]cn1)[C@@H](C)O)C(C)C)C(C)C)C(=O)N[C@@H](C)C(=O)N[C@@H](CC(N)=O)C(=O)N[C@H](C(N)=O)[C@@H](C)O [Peptide 212] (H-H[Aib]HGS[αMeF]TSDVSK[αMeF]LDSRAAK([AEEA-AEEA-γGlu-C20 diacid])DFVEWIANT-NH2)
7 | 534 pM | 0.5 | 141 pM | CC[C@H](C)[C@H](NC(=O)[C@H](Cc1c[nH]c2ccccc12)NC(=O)[C@H](CCC(=O)O)NC(=O)[C@@H](NC(=O)[C@H](Cc1ccccc1)NC(=O)[C@H](CC(=O)O)NC(=O)[C@H](CCCCNC(=O)COCCOCCNC(=O)COCCOCCNC(=O)CC[C@H](NC(=O)CC[C@H](NC(=O)CCCCCCCCCCCCCCCCCCC(=O)O)C(=O)O)C(=O)O)NC(=O)[C@H](C)NC(=O)[C@H](C)NC(=O)[C@H](CCCNC(=N)N)NC(=O)[C@H](CO)NC(=O)[C@H](CC(=O)O)NC(=O)[C@H](CC(C)C)NC(=O)[C@](C)(Cc1ccccc1)NC(=O)[C@H](CCCCN)NC(=O)[C@H](CO)NC(=O)[C@@H](NC(=O)[C@H](CC(=O)O)NC(=O)[C@H](CO)NC(=O)[C@@H](NC(=O)[C@](C)(Cc1ccccc1)NC(=O)[C@H](CO)NC(=O)CNC(=O)[C@H](Cc1c[nH]cn1)NC(=O)C(C)(C)NC(=O)[C@@H](N)Cc1c[nH]cn1)[C@@H](C)O)C(C)C)C(C)C)C(=O)N[C@@H](C)C(=O)N[C@@H](CC(N)=O)C(=O)N[C@H](C(N)=O)[C@@H](C)O [Peptide 213] (H-H[Aib]HGS[αMeF]TSDVSK[αMeF]LDSRAAK([AEEA-AEEA-γGlu-γGlu-C20 diacid])DFVEWIANT-NH2; N-terminus assumed)
8 | 2340 pM | 0.7 | 810 pM | CC[C@H](C)[C@H](NC(=O)[C@H](Cc1c[nH]c2ccccc12)NC(=O)[C@H](CCC(N)=O)NC(=O)[C@@H](NC(=O)[C@H](Cc1ccccc1)NC(=O)[C@H](CC(=O)O)NC(=O)[C@H](CCCCNC(=O)COCCOCCNC(=O)COCCOCCNC(=O)CC[C@H](NC(=O)CCCCCCCCCCCCCCCCCCC(=O)O)C(=O)O)NC(=O)[C@H](C)NC(=O)[C@H](C)NC(=O)[C@H](CCCNC(=N)N)NC(=O)[C@H](CO)NC(=O)[C@H](CC(=O)O)NC(=O)[C@H](CC(C)C)NC(=O)[C@](C)(Cc1ccccc1)NC(=O)[C@H](CCCCN)NC(=O)[C@H](CO)NC(=O)[C@@H](NC(=O)[C@H](CC(=O)O)NC(=O)[C@H](CO)NC(=O)[C@@H](NC(=O)[C@](C)(Cc1ccccc1)NC(=O)[C@H](CO)NC(=O)CNC(=O)[C@H](Cc1c[nH]cn1)NC(=O)C(C)(C)NC(=O)[C@@H](N)Cc1c[nH]cn1)[C@@H](C)O)C(C)C)C(C)C)C(=O)N[C@@H](C)C(=O)N[C@@H](CC(N)=O)C(=O)N[C@H](C(N)=O)[C@@H](C)O [Peptide 214] (H-H[Aib]HGS[αMeF]TSDVSK[αMeF]LDSRAAK([AEEA-AEEA-γGlu-C20 diacid])DFVQWIANT-NH2)

Source: US20250353891A1 (MEDIMMUNE LIMITED, priority 2022, published 2025)
